How the values were obtained:
[1] = tested on: MV-4-11 leukemia cell; test: BrdU cell proliferation assay (PerkinElme kit); type: cell-based; details: Homo sapiens, MV4-11, 48 h; read-out: In vitro cell-inhibiting activity IC50 MV-4-11
Description: Experimental method: cell proliferation assay was carried out by BrdU method (BrdU cell proliferation assay kit, PerkinElme Company).
Preparation of gradient dilution solutions of test compound: the stock solution containing 5 mM test compound was diluted by DMSO to prepare a 2 mM solution, then was subjected to 4-fold stepwise dilution to 9 concentration gradients.
MV-4-11 medium: IMDM+10% FBS
(1) Cells grown to exponential growth phase were digested with pancreatin, and centrifuged to collect the cells. The adherent cells were re-suspended in the corresponding culture medium, counted, and seeded to a 96-well plate; H358 cells and SW780 cells were seeded at 4000 cells/well/100 μL; PC3 cells were seeded at 1500 cells/well/100 μL; H441 cells were seeded at 6000 cells/well/100 μL. The plates were placed in a cell incubator at 37° C. After the cells adhered to the wall, the medium was replaced by serum-free medium. The suspended cells MV-4-11 and JeKo-1 were re-suspended with serum-free medium, counted, seeded to a 96-well plate by 10000 cells/well/100 μL and placed in a cell incubator overnight at 37° C. with 5% CO2. […]
(6) To each well, 200 μL of DELFIA Inducer was added and incubated for 15 min at room temperature. Value of fluorescence (Flu) was measured by ELISA instrument […]

[2] = tested on: HGC-27 gastric cancer cell; test: BrdU cell proliferation assay (Cell Signaling kit); type: cell-based; details: Homo sapiens, HGC-27, 72 h; read-out: In vitro cell-inhibiting activity IC50 HGC-27
Description: Experimental method: cell proliferation assay was carried out by BrdU method (BrdU cell proliferation assay kit, Cell Signaling Technology Company).
Preparation of gradient dilution solutions of test compound: the stock solution containing 10 mM test compound was subjected to 4-fold stepwise dilution with DMSO to prepare solutions containing 2.5 mM, 625 μM, 156 μM, 39 μM, 9.8 μM, and 2.5 μM test compound, respectively. 2 μL DMSO-diluted compound was added to 198 μL culture medium containing 10% FBS to prepare […] test compound, wherein the maximum concentration of the test compound was 100 μM, the concentration of DMSO was 1%, and there were 7 concentration gradients.
HGC-27 medium: DMEM+10% FBS
(1) Cells grown to 80% confluence (in exponential growth phase) were digested with pancreatin, and centrifuged to collect the cells. Cells were re-suspended in FBS-free culture medium, counted, and seeded to a 96-well plate at 4000 cells/well/81 μL. The plates were placed in a cell incubator at 37° C.
(2) After 24 h culture, 9 μL FBS was added to each well to reach a final FBS concentration of 10%. […]
(9) To each well, 100 μL stop solution was added, and OD value at 450 nm was measured by ELISA instrument 3. […]

CCN1CCN(Cc2cnc(Nc3cc(-c4cc(F)c5nc(C)n(C(C)C)c5c4)c(F)cn3)nc2)CC1 [Compound 1, 5-((4-ethylpiperazin-1-yl)methyl)-N-(5-fluoro-4-(4-fluoro-1-isopropyl-2-methyl-1H-benzo[d]imidazol-6-yl)pyridin-2-yl)pyrimidin-2-amine]
IC50 [1]: 139 nM
IC50 [2]: 316 nM
